Where “and” joins values, the source holds several entries; their conditions need not be identical. Equal entries are not always repeated. Toxic doses and inconclusive results are not listed.
System: CD2F1 mice, L1210 leukemia ip, survival T/C
Assay: NCI In Vivo Anticancer Drug Screen. Data for tumor model L1210 Leukemia (intraperitoneal) in CD2F1 (CDF1) mice
Settings: higher = longer survival
Method in brief: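 Mice carrying a transplanted tumor received test compound or vehicle alone. The value is the measurement in the treated group divided by that in the vehicle-treated control group.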

[1] = endpoint: mean survival time, dose: 100.0 mg/kg/injection, schedule: Q01DX009 (ip), vehicle: saline with Tween-80
[2] = endpoint: mean survival time, dose: 200.0 mg/kg/injection, schedule: Q01DX009 (ip), vehicle: saline with Tween-80
[3] = endpoint: mean survival time, dose: 400.0 mg/kg/injection, schedule: Q01DX009 (ip), vehicle: saline with Tween-80
[4] = endpoint: mean survival time, dose: 6.25 mg/kg/injection, schedule: Q04DX003 (ip), vehicle: distilled water + Tween-80
[5] = endpoint: mean survival time, dose: 12.5 mg/kg/injection, schedule: Q04DX003 (ip), vehicle: distilled water + Tween-80

For `Cc1c(N=NN(C)C)cc[n+]([O-])c1C`, the T/C (endpoint: mean survival time, dose: 11.0 mg/kg/injection, schedule: Q01DX009 (ip), vehicle: water) was 121 % of control, the T/C (endpoint: mean survival time, dose: 25.0 mg/kg/injection, schedule: Q01DX009 (ip), vehicle: water) was 157 % of control and the T/C (endpoint: mean survival time, dose: 37.5 mg/kg/injection, schedule: Q01DX009 (ip), vehicle: water) was 159 % of control.

In the case of `Cc1c(C)c2c(c(C)c1O)CC(CC(=O)CO)CO2` (stereo not given), the T/C [1] is reported as 93 % of control, the T/C [2] is reported as 100 % of control and the T/C [3] is reported as 93 % of control.

With `C=Cn1cnc2c(N)ncnc21` (tested in a mixture with another compound) the T/C (endpoint: mean survival time, dose: 12.5 mg/kg/injection, schedule: Q01DX005 (ip), vehicle: water) was 101 % of control, the T/C (endpoint: mean survival time, dose: 25.0 mg/kg/injection, schedule: Q01DX005 (ip), vehicle: water) was 104 % of control and the T/C (endpoint: mean survival time, dose: 50.0 mg/kg/injection, schedule: Q01DX005 (ip), vehicle: water) was 101 % of control. For the same molecule, the T/C (endpoint: mean survival time, dose: 100.0 mg/kg/injection, schedule: Q01DX005 (ip), vehicle: water) was 101 % of control and the T/C (endpoint: mean survival time, dose: 200.0 mg/kg/injection, schedule: Q01DX005 (ip), vehicle: water) was 104 % of control.

In the case of `O=C(c1ccccn1)c1ccccn1`, the T/C (endpoint: mean survival time, dose: 100.0 mg/kg/injection, schedule: Q04DX003 (ip), vehicle: saline) is reported as 96 % of control, the T/C (endpoint: mean survival time, dose: 200.0 mg/kg/injection, schedule: Q04DX003 (ip), vehicle: saline) is reported as 104 % of control and the T/C (endpoint: mean survival time, dose: 400.0 mg/kg/injection, schedule: Q04DX003 (ip), vehicle: saline) is reported as 102 % of control.

`Cc1ccc(N=Nc2c(N)nc(N)nc2N)cc1C` was tested, and the T/C (endpoint: mean survival time, dose: 100.0 mg/kg/injection, schedule: Q04DX003 (ip), vehicle: saline with Tween-80) was 96 % of control, the T/C (endpoint: mean survival time, dose: 200.0 mg/kg/injection, schedule: Q04DX003 (ip), vehicle: saline with Tween-80) was 102 % of control and the T/C (endpoint: mean survival time, dose: 400.0 mg/kg/injection, schedule: Q04DX003 (ip), vehicle: saline with Tween-80) was 108 % of control.

In the case of `Cc1c2c[n+](CCCCCCCC[n+]3ccc4c(C)c5c(c(C)c4c3)c3ccccc3n5CCO)ccc2c(C)c2c1c1ccccc1n2CCO`, the T/C (endpoint: mean survival time, dose: 1.56 mg/kg/injection, schedule: Q04DX003 (ip), vehicle: distilled water + Tween-80) is reported as 119 % of control, the T/C [4] is reported as 150 % of control and 159 % of control and the T/C [5] is reported as 114 % of control.

With `CC[n+]1cccc2ccccc21` the T/C (endpoint: mean survival time, dose: 18.8 mg/kg/injection, schedule: Q01DX009 (ip), vehicle: saline) was 95 % of control, the T/C (endpoint: mean survival time, dose: 25.0 mg/kg/injection, schedule: Q04DX003 (ip), vehicle: saline) was 96 % of control and the T/C (endpoint: mean survival time, dose: 37.5 mg/kg/injection, schedule: Q01DX009 (ip), vehicle: saline) was 96 % of control.

`O=C(O)CCC(CCC(=O)O)(C(=O)O)C(=O)O` was tested, and the T/C (endpoint: median survival time, dose: 75.0 mg/kg/injection, schedule: Q01DX009 (ip), vehicle: saline) was 98 % of control, the T/C (endpoint: median survival time, dose: 150.0 mg/kg/injection, schedule: Q01DX009 (ip), vehicle: saline) was 96 % of control and the T/C (endpoint: median survival time, dose: 300.0 mg/kg/injection, schedule: Q01DX009 (ip), vehicle: saline) was 96 % of control.

`CN(C)P(=O)(Oc1ccccc1)N(C)C` was tested, and the T/C (endpoint: mean survival time, dose: 12.5 mg/kg/injection, schedule: Q01DX009 (ip), vehicle: saline with Tween-80) was 98 % of control and 100 % of control, the T/C (endpoint: mean survival time, dose: 25.0 mg/kg/injection, schedule: Q01DX009 (ip), vehicle: saline with Tween-80) was 95 % of control and 101 % of control and the T/C (endpoint: mean survival time, dose: 50.0 mg/kg/injection, schedule: Q01DX009 (ip), vehicle: saline with Tween-80) was 89 % of control and 96 % of control. For the same molecule, the T/C [1] was 94 % of control and 101 % of control, the T/C [2] was 95 % of control and 96 % of control and the T/C [3] was 93 % of control and 96 % of control.

For `Nc1cc(=O)[nH]c(=S)[nH]1.[Pd]`, the T/C (endpoint: mean survival time, dose: 3.13 mg/kg/injection, schedule: Q04DX003 (ip), vehicle: distilled water + Tween-80) was 100 % of control, the T/C [4] was 100 % of control and the T/C [5] was 103 % of control. The T/C (endpoint: mean survival time, dose: 25.0 mg/kg/injection, schedule: Q04DX003 (ip), vehicle: distilled water + Tween-80) was 97 % of control, the T/C (endpoint: mean survival time, dose: 50.0 mg/kg/injection, schedule: Q04DX003 (ip), vehicle: distilled water + Tween-80) was 97 % of control and the T/C (endpoint: mean survival time, dose: 100.0 mg/kg/injection, schedule: Q04DX003 (ip), vehicle: distilled water + Tween-80) was 96 % of control. The T/C (endpoint: mean survival time, dose: 200.0 mg/kg/injection, schedule: Q04DX003 (ip), vehicle: distilled water + Tween-80) was 91 % of control.

For `Cc1nc2c(c(-c3ccccc3)n1)Cc1ccccc1O2`, the T/C (endpoint: mean survival time, dose: 100.0 mg/kg/injection, schedule: Q01DX001 (ip), vehicle: saline) was 98 % of control, the T/C (endpoint: mean survival time, dose: 200.0 mg/kg/injection, schedule: Q01DX001 (ip), vehicle: saline) was 98 % of control and the T/C (endpoint: mean survival time, dose: 400.0 mg/kg/injection, schedule: Q01DX001 (ip), vehicle: saline) was 101 % of control.

In the case of `CNC(=O)Nc1nncs1`, the T/C [1] is reported as 97 % of control, the T/C [2] is reported as 104 % of control and the T/C [3] is reported as 92 % of control.
